Literature values as cited in publication PMC8472685, “Nanocrystalline Suspensions of Irbesartan Enhance Oral Bioavailability by Improving Drug Solubility and Leading Endocytosis Uptake into the Intestine” (Pharmaceutics, 2021).

Experiments:
[1] = for Aqueous solubility of crystalline form: forms A and B
[2] = parameters: method as in PMID 9438775
patients = test system: patients; parameters: method as in PMID 9438776; details: 300 mg dose

Compound | Aqueous solubility of crystalline form [1] | BCS class ([1]; low aqueous solubility and high permeability) | Time of Cmax after oral administration [2] | Oral bioavailability (BA) ([2]; in patients) | Decrease in BP from baseline (patients) | Higher BP in treated compared to nontreated patients (so in the source) (patients)
CCCCC1=NC2(CCCC2)C(=O)N1Cc1ccc(-c2ccccc2-c2nnn[nH]2)cc1 [form A, irbesartan] | 11 µg/mL | – | – | – | – | –
CCCCC1=NC2(CCCC2)C(=O)N1Cc1ccc(-c2ccccc2-c2nnn[nH]2)cc1 [form B, irbesartan] | 0.6 µg/mL | – | – | – | – | –
CCCCC1=NC2(CCCC2)C(=O)N1Cc1ccc(-c2ccccc2-c2nnn[nH]2)cc1 [irbesartan] | – | BCS class II | 1.5 to 2 h | 60–80% | 10 mmHg | approximately 70%
